Measured values from patent US11649220B2 (DEMOTECH.INC., priority 2018, dated 2023).

How the values were obtained:
[1] = In vitro free radical inhibition test (DPPH method); details: 8 μL of 20 mmol/L compound in 1 mL DPPH 0.059 mg/mL ethanol, 60 min dark, 517 nm; for inhibition rate %: DPPH; for Relative inhibition ability on free radicals: inhibition rate of AGI1067 on DPPH defined as 100
How it was run: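 DPPH in absolute ethanol (0.059 mg/mL) was mixed with test compound (20 mmol/L stock) and kept in the dark at room temperature for 60 minutes. Radical scavenging was read as loss of absorbance at 517 nm.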

[2] = system: golden hamsters (60% high-fat food, STZ induced); assay: Golden hamster disease model, animal model induction group (16-week-old group): blood biochemical indexes and body weight; type: in vivo; details: for change rate of blood glucose %: 0.1 mL of 6.8 mg/mL DMSO solution + 0.25 mL whole milk by gavage once a day for 2 weeks; for change rate of body weight after deduction of DMSO blank %: DMSO blank deducted; for average body weight after administration/g / change of body weight/g / change rate of body weight %: after gavage once a day for 2 weeks; for HDL % / LDL % / total cholesterol % / triglyceride %: change rate, gavage once a day for 2 weeks
Procedure: (§1) Animals and feed: 1) 8-week-old male golden hamsters with a body weight range of 100±5 g were selected; 2) 60% high-fat food; 3) 30% high-fat food; 4) general feed: NRC standard feed, containing 5% fat, total calories 4200 kcal/kg.
Animal model induction group (16-week-old group): 1) fed with 60% high-fat food for 2 weeks under standard environment; 2) STZ intraperitoneal injection twice every two days, 50 mg/kg each time; 3) After STZ induction, the golden hamsters were continuous fed for 1 week; 4) Blood was taken from the ocular venous plexus, and the initial body weight, blood glucose, total cholesterol, LDL-c, HDL-c and triglyceride were measured, and the golden hamsters were grouped in parallel according to animal biochemical indicators, 8 in each group; 5) Gavage of compounds: 0.1 mL of solution of compound (concentration: 6.8 mg/mL, DMSO solution) and 0.25 mL of whole milk were mixed evenly and administrated by gavage once a day for 2 weeks; 6) Blank control: 0.1 mL of DMSO and 0.25 mL of whole milk were mixed evenly and administrated by gavage once a day for 2 weeks; 7) Observation time: 14 days later, blood was taken from the ocular venous plexus, and the body weight, blood glucose, total cholesterol, LDL-c, HDL-c and triglyceride were measured.
(§2) Instruments: Shimadzu UV-1750 spectrophotometer, clinical determination kit (Changchun Huili Biotechnology Co., Ltd.)
(§3) Determination of blood glucose: glucose oxidase method, kit
(§4) Determination of total cholesterol (COD-PAP method), kit
(§5) Determination of low density lipoprotein cholesterol (direct method), kit
(§6) Determination of triglyceride (GP-PAP method)
(§7) Determination of high density lipoprotein (direct method), kit

[3] = system: golden hamsters (high-fat food, STZ induced); assay: Golden hamster disease model, animal model induction group (24-week-old group): blood biochemical indexes and body weight; type: in vivo; details: for change rate of blood glucode %: 0.1 mL of 6.8 mg/mL DMSO solution + 0.25 mL whole milk by gavage once a day for 2 weeks; for change rate of body weight after deduction of DMSO blank %: DMSO blank deducted; for change of body weight/g / change rate of body weight %: after gavage once a day for 2 weeks; for HDL % / LDL % / total cholesterol % / triglyceride %: change rate, gavage once a day for 2 weeks; for average body weight at 24 weeks/g: initial weight before administration
Description: as §1
Animal model induction group (24-week-old group): After STZ induction, the golden hamsters were continuous fed with 30% high-fat food for 8 weeks, blood was taken from the ocular venous plexus, and the initial body weight, blood glucose concentration, total cholesterol, LDL-c, HDL-c and triglyceride were measured, and the golden hamsters were grouped in parallel according to animal biochemical indicators, 8 in each group; 5) Gavage of compounds: 0.1 mL of solution of compound (concentration: 6.8 mg/mL, DMSO solution) and 0.25 mL of whole milk were mixed evenly and administrated by gavage once a day for 2 weeks; 6) Blank control: 0.1 mL of DMSO and 0.25 mL of whole milk were mixed and administrated by gavage, once a day for 2 weeks; 6) Blank control: 0.1 mL of DMSO were mixed with 0.25 mL of whole milk, and administrated by gavage, once a day for 2 weeks; 7) 14 days later, blood was taken from the ocular venous plexus, and the body weight, blood glucose, total cholesterol, LDL-c, HDL-c and triglyceride were measured.
as §2, §3, §4, §5, §6, §7

[4] = system: Malondialdehyde (MDA) in serum; assay: In vivo anti-lipid oxidation experiment (serum MDA, TBA method); parameters: inhibition rate %: concentration or dose not given beside the values; details: MAD lipid peroxidation in vivo; for inhibition rate %: relative to solvent DMSO and Chow averages; for avarage value of OD: serum, TBA method, 532 nm
How it was run: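 Serum mixed with TBA-based reagents in acetic acid, heated at 95° C for 60 min, centrifuged, supernatant OD read at 532 nm. MDA calculated against 10 nmol/mL tetraethoxypropane standard after subtracting a per-sample control tube (50% glacial acetic acid replacing Reagent III); inhibition % normalised between Chow and DMSO-solvent groups.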

## CC(O)c1cc(SSc2cc(C(C)O)c(O)c(C(C)(C)C)c2)cc(C(C)(C)C)c1O (stereo not shown) [Compound 5, 4,4′-disulfanediyl-bis(2-(tert-butyl)-6-(1-hydroxyethyl)phenol)]
[1]
  inhibition rate %: 48.1%
  Relative inhibition ability on free radicals: 110.2
[2]
  change rate of blood glucose %: 19.7%
  change rate of body weight after deduction of DMSO blank %: −1.9%
  average body weight after administration/g: 145.2 g
  change of body weight/g: 10.6 g
  change rate of body weight %: 7.9%
  HDL %: 38.8%
  LDL %: −24.9%
  total cholesterol %: −12.2%
  triglyceride %: −28.5%
[3]
  change rate of blood glucode %: 11.5%
  change rate of body weight after deduction of DMSO blank %: −13.6%
  change of body weight/g: -25.0 g
  change rate of body weight %: −21.1%
  HDL %: −69.2%
  LDL %: −33.9%
  total cholesterol %: 6.6%
  triglyceride %: −65.8%
  average body weight at 24 weeks/g: 118.1 g
[4]
  inhibition rate %: 79.6%
  avarage value of OD: 6.21

## CC(C)(Sc1cc(C(C)(C)C)c(O)c(C(C)(C)C)c1)Sc1cc(C(C)(C)C)c(O)c(C(C)(C)CCOC(=O)CCCCC2CCSS2)c1 (stereo not shown) [Compound 12, 3-(3-(tert-butyl)-5-((2-((3,5-di-tert-butyl-4-hydroxyphenyl)thio)propan-2-yl)thio)-2-hydroxyphenyl)-3-methylbutyl 5-(1,2-dithiolan-3-yl)pentanoate]
[1]
  inhibition rate %: 36.5%
  Relative inhibition ability on free radicals: 83.6
[2]
  change rate of blood glucose %: −17.0%
  change rate of body weight after deduction of DMSO blank %: −1.6%
  average body weight after administration/g: 135.4 g
  change of body weight/g: -2.3 g
  change rate of body weight %: −1.6%
  HDL %: −3.4%
  LDL %: −35.8%
  total cholesterol %: −30.7%
  triglyceride %: −43.0%
[3]
  change rate of blood glucode %: −29.0%
  change rate of body weight after deduction of DMSO blank %: −6.6%
  change of body weight/g: -17.3 g
  change rate of body weight %: −14.2%
  HDL %: −72.1%
  LDL %: −32.7%
  total cholesterol %: −0.3%
  triglyceride %: −51.7%
  average body weight at 24 weeks/g: 122.4 g
[4]
  inhibition rate %: 64.0%
  avarage value of OD: 6.82

## COC(=O)CNCCC(C)(C)c1cc(SC(C)(C)Sc2cc(C(C)(C)C)c(O)c(C(C)(C)C)c2)cc(C(C)(C)C)c1O [Compound 21]
[1]
  inhibition rate %: 22.3%
  Relative inhibition ability on free radicals: 51.2
[2]
  change rate of blood glucose %: −35.5%
  change rate of body weight after deduction of DMSO blank %: −1.6%
  average body weight after administration/g: 142.5 g
  change of body weight/g: 10.7 g
  change rate of body weight %: 8.1%
  HDL %: 56.3%
  LDL %: 14.2%
  total cholesterol %: −0.6%
  triglyceride %: −6.5%
[3]
  change rate of blood glucode %: −12.4%
  change rate of body weight after deduction of DMSO blank %: −6.1%
  change of body weight/g: -16.4 g
  change rate of body weight %: −13.6%
  HDL %: −70.1%
  LDL %: −21.8%
  total cholesterol %: 23.5%
  triglyceride %: −65.1%
  average body weight at 24 weeks/g: 120.0 g
[4]
  inhibition rate %: 53.3%
  avarage value of OD: 7.23

## CC(C)(Sc1cc(C(C)(C)C)c(O)c(C(C)(C)C)c1)Sc1cc(C(C)(C)C)c(OC(=O)CCC(=O)NCCS(=O)(=O)O)c(C(C)(C)C)c1 [Compound 26, 2-(4-(2,6-di-tert-butyl-4-((2-((3,5-di-tert-butyl-4-hydroxyphenyl)thio)propan-2-yl)thio)phenoxy)-4-oxobutanamido)ethane-1-sulfonic acid]
[1]
  inhibition rate %: 16.3%
  Relative inhibition ability on free radicals: 37.4
[2]
  change rate of blood glucose %: −16.8%
  change rate of body weight after deduction of DMSO blank %: −2.9%
  average body weight after administration/g: 145.2 g
  change of body weight/g: 9.4 g
  change rate of body weight %: 6.9%
  HDL %: 108.8%
  LDL %: −6.2%
  total cholesterol %: −9.0%
  triglyceride %: 3.0%
[3]
  change rate of blood glucode %: −14.2%
  change rate of body weight after deduction of DMSO blank %: −6.4%
  change of body weight/g: -18.1 g
  change rate of body weight %: −13.9%
  HDL %: −67.5%
  LDL %: −23.0%
  total cholesterol %: 30.5%
  triglyceride %: −5.1%
  average body weight at 24 weeks/g: 130.1 g
[4]
  inhibition rate %: 108.7%
  avarage value of OD: 5.10
